Test results published in US20260043793A1, “MICROFLUIDIC CELL SPHEROIDS AND ORGANOIDS CULTURE INSERT FOR DISEASE MODELING AND SCREENING OF THERAPEUTICS” (APRICELL BIOTECHNOLOGY INC., priority 2022, published 2026).

How the values were obtained:
Type in all cases: cell-based
[1] = test system: TMZ non-resistant U251 cell spheroids or organoids; assay: Growth and invasion of TMZ non-resistant U251 spheroids in Collagen/HA ECM conditioned with Reelin
Experimental: (§1) To investigate and compare the invasive behavior of TMZ resistant GBM cancer cells with non-resistant cell spheroids or organoids through the ECM hydrogel, we used TMZ resistant and non-resistant U251 cell lines to make cell spheroids or organoids in the device 10 or the sector 20. The method of U251 cell spheroids or organoid formation was similar to that disclosed above.
(§2) The effect of recombinant Reelin on viability of the U251 cell spheroids or organoids was studied. It was tested with 2 different concentrations of Reelin (1 and 100 nM) on cell spheroids or organoids in the device 10 or the sector 20. Moreover, to study the invasive behavior of the resistant and non-resistant cell spheroids or organoids, they were embedded in Collagen/HA hydrogel. The method of cell spheroids or organoid embedding in the hydrogel is similar to that disclosed in example 1. In this study, the effect of Reelin protein in combination with ECM hydrogel on invasiveness of the cell spheroids or organoids and their invasion length using Vimentin immunostaining and florescent microscopy respectively was studied.

[2] = test system: U251 cell spheroids or organoids; assay: Effect of recombinant Reelin on viability of U251 spheroids (live-dead); conditions: increasing Reelin concentration from 1 to 100 nM
Experimental: as §2
It is shown in live-dead fluorescent images by increasing the number of red cells stained with Propodeum iodide (PI) compared to the green cells stained with calcein AM after treatment with 100 nM Reelin.

[3] = test system: vimentin surface marker; assay: Vimentin immunostaining of U251 spheroids (resistant and non-resistant) in collagen/HA ECM; conditions: 10 nm of Reelin, non-resistant in comparison to resistant spheroids
Description: as §2, with “It was tested with 2 different concentrations of Reelin (1 and 100 nM) on cell spheroids or organoids in the device 10 or the sector 20.” left out
Level of surface vimentin expression of the tumor cells was measured as an indication of invasiveness of cell spheroids or organoids with the ECM matrix.

[4] = test system: TMZ resistant U251 cell spheroids or organoids; assay: Growth and invasion of TMZ resistant U251 spheroids in Collagen/HA ECM conditioned with Reelin; conditions: for average invasion length: Collagen/HA matrix
Experimental: as §1, §2

[5] = 10 nM Reelin, in response to TMZ

## Reelin: recombinant Reelin protein used alone or in combination with ECM hydrogel
[1]; [5]
  invasion length in Reelin treated matrix compared to normal ECM matrix: higher invasion length
[1]; each Reelin concentration, day 0 to 3, compared with resistant spheroids
  size increase of spheroids over time (diameter): more significant
[1]; higher concentrations of Reelin, day 3
  growth of cell spheroids or organoids (diameter): more inhibitory effect on the growth
[1]; increasing concentrations of Reelin, Collagen/HA matrix
  invasion length: constantly increasing
[2]
  cell viability: significant decrease in cell viability
[3]
  fluorescent intensity index of the vimentin surface marker: higher fluorescent intensity index
[4]; 10 nM Reelin
  average invasion length: around 400 μm
[4]; [5]
  invasion length in Reelin conditioned matrix compared to normal matrix: reverse
[4]; 100 nM Reelin
  average invasion length: drops significantly
[4]; higher concentrations of Reelin, day 3, compared with non-resistant
  inhibitory effect on growth (diameter): less
